US7064145B2, “Inhibition of beta cell degeneration” (Novo Nordisk A/S, priority 2000, dated 2006)
Values joined by “and” are separate entries in the source; they are usually repeats but may differ in a detail not shown here. Equal values may be shown once. Ends that are not written are not given here.

Columns and labels:
[1] = system: remnant and regenerated pancreatic tissue (beta cells); experiment: Pancreatic tissue regeneration, BrdU and insulin immunohistochemistry after 60% pancreatectomy; format: in vivo, Sprague-Dawley rats; parameters: key to Amount of regenerated tissue: The amount of regenerated tissue was scored on the following range: −, (+), +, ++, +++; The amount of regenerated tissue was scored on the following range: −, (+), +, ++, +++; The amount of regenerated tissue was scored on the following range: −, (+), +, ++, +++; The amount of regenerated tissue was scored on the following range: −, (+), +, ++, +++; The amount of regenerated tissue was scored on the following range: −, (+), +, ++, +++; settings: 20 mg/kg p.o. x2, day 4 to 8
Experimental: A 60% pancreatectomy was performed on a total of 12 male Sprague-Dawley rats. Vehicle and the DPP-IV inhibitor Val-Pyr was administered to 6 of these from day 4 to 8 in a dose of 20 mg/kg p.o. x2, while the remaining 6 rats were treated with vehicle alone.
The proliferation of beta cells was measured as incorporation of the thymidine analogue 5-bromo-2-deoxyuridine (BrdU) into DNA in insulin-positive cells. 8 days after the 60% pancreatectomy, 100 mg/kg BrdU was administered i.p. and 4 hours later the area containing remnant and regenerated pancreatic tissue was removed and processed for immunohistochemistry. Three adjacent sections from each animal were stained for insulin and BrdU. The amount of regenerated tissue was scored on the following range: −, (+), +, ++, +++. The location of BrDU was examined in regenerated pancreatic (reg) and exocrine (ex) tissue. Insulin staining was scored as weak (W), normal (N), and in regenerated tissue (+R).

[2] = Oral Glucose Tolerance Test (OGTT) at day 8 in 60% pancreatectomized rats; format: in vivo, Sprague-Dawley rats; settings: 20 mg/kg p.o. x2, day 4 to 8
[3] = system: pancreatic islet cells from newborn rats; experiment: Beta cell proliferation in vitro (BrdU incorporation into DNA in insulin-positive cells); format: cell-based
Experimental: In our efforts to identify beta cell growth factors we discovered that GLP-1 indeed could stimulate beta cell proliferation in vitro. The proliferation was measured as incorporation of the thymidine analogue 5-bromo-2-deoxyuridine (BrdU) into DNA in insulin-positive cells in pancreatic islet cells from newborn rats.

| Molecule | Animals with insulin expressed in islets located in the regenerating pancreatic tissue ([1]; vehicle alone 1 out of 6) | Amount of regenerated tissue ([1]; per animal, tissue removed 8 days after 60% pancreatectomy, 20 mg/kg) | Glucose excursion AUC after OGTT [2] | Number of labelled (BrdU) beta cells [3] |
| --- | --- | --- | --- | --- |
| CC(C)[C@H](N)C(=O)N1CCCC1 [Val-Pyr] | 5 out of 6 | + (5×) and ++ | ~50 % of vehicle |  |
| GLP-1: insulinotropic hormone Glucagon like peptide-1 (HAEGTFTSDVSSYLEGQAAKEFIAWLVKGR; ends and bridges not checked; UniProt P01275 98-127, looked up) |  |  |  | increase the number of labelled beta cells |
